The values that follow are results of earlier work, collected in patent US9827328B2, “Combination therapy for treatment of cancer” (UNIVERSITY OF SOUTH ALABAMA, priority 2011, dated 2017).

Each structure is given as a SMILES string. Like-named read-outs stand apart in the source and are kept apart here.

Data set [1] relates to patients with metastatic breast cancer.
Data set [2] relates to patients with advanced or metastatic breast cancer. To be noted: weekly nab-paclitaxel v every-three week Taxotere.

As to `CC(=O)O[C@H]1C(=O)[C@@]2(C)[C@H]([C@H](OC(=O)c3ccccc3)[C@]3(O)C[C@H](OC(=O)[C@H](O)[C@@H](NC(=O)c4ccccc4)c4ccccc4)C(C)=C1C3(C)C)[C@]1(OC(C)=O)CO[C@@H]1C[C@@H]2O` [Taxol, paclitaxel], in data set [1] (all patients), the “incidence of hyperglycemia reported as adverse effect” value is given as 7%. Moreover, the results for the median survival in data set [1] (all patients) and in data set [1] (second-line or greater therapy) were 55.7 weeks and 46.7 weeks, respectively. For the same compound, the “median time to tumor progression (TTP)” value in data set [1] (all patients) is given as 16.9 weeks. Also, the “overall response rate (ORR)” value in data set [1] (all patients, ITT) was 19%. Further, in data set [1] (by day 28 after first occurrence), the “number of patients with persistent grade 3 sensory neuropathy” value is listed as 4. Moreover, the “episodes of motor neuropathy or grade 4 sensory neuropathy” value in data set [1] (in vivo) is listed as “No episodes”. In data set [1] (in vivo), the “incidence of treatment-related grade 4 neutropenia” value was 22%. In data set [1] (in vivo), the mean neutrophil nadir is 1.31e+09 L⁻¹. Moreover, the “treatment-related grade 3 sensory neuropathy” value in data set [1] (in vivo) is given as 2%. Besides, in data set [1] (nab-paclitaxel without premedication, Taxol with standard premedication), the “severe (grade 3 or 4) treatment-related hypersensitivity reactions” value is “grade 3 hypersensitivity reactions occurred”. The tumor response rate in data set [1] (patients aged younger than 65 years) and in data set [1] (patients with visceral dominant lesions) was 19% throughout. The ORR in data set [1] (patients who received first-line therapy) is 27%; in data set [1] (patients with nonvisceral dominant lesions) it was 19%; in data set [1] (patients ≧65 years old), 19%; in data set [1] (prior anthracycline therapy, adjuvant/metastatic setting), 18%; in data set [1] (prior anthracycline therapy, metastatic setting only), 14%; in data set [1] (second-line or greater therapy) it was 13%.

In the case of `CC(=O)O[C@@]12CO[C@@H]1C[C@H](O)[C@@]1(C)C(=O)[C@H](O)C3=C(C)[C@@H](OC(=O)[C@H](O)[C@@H](NC(=O)OC(C)(C)C)c4ccccc4)C[C@@](O)([C@@H](OC(=O)c4ccccc4)[C@H]21)C3(C)C` [Taxotere, docetaxel], the “rate of grade 4 neutropenia” value in data set [2] is 75%.
